The data set has as its target ATP-binding cassette sub-family C member 2 (Rattus norvegicus, UniProt Q63120). The data set can be described thus: TP_TRANSPORTER: efflux in isolated rat hepatocytes (Wistar/TR-). Format: functional, cell-based, Hepatocyte.

ATP-binding cassette sub-family C member 2, sequence (Q63120 whole entry): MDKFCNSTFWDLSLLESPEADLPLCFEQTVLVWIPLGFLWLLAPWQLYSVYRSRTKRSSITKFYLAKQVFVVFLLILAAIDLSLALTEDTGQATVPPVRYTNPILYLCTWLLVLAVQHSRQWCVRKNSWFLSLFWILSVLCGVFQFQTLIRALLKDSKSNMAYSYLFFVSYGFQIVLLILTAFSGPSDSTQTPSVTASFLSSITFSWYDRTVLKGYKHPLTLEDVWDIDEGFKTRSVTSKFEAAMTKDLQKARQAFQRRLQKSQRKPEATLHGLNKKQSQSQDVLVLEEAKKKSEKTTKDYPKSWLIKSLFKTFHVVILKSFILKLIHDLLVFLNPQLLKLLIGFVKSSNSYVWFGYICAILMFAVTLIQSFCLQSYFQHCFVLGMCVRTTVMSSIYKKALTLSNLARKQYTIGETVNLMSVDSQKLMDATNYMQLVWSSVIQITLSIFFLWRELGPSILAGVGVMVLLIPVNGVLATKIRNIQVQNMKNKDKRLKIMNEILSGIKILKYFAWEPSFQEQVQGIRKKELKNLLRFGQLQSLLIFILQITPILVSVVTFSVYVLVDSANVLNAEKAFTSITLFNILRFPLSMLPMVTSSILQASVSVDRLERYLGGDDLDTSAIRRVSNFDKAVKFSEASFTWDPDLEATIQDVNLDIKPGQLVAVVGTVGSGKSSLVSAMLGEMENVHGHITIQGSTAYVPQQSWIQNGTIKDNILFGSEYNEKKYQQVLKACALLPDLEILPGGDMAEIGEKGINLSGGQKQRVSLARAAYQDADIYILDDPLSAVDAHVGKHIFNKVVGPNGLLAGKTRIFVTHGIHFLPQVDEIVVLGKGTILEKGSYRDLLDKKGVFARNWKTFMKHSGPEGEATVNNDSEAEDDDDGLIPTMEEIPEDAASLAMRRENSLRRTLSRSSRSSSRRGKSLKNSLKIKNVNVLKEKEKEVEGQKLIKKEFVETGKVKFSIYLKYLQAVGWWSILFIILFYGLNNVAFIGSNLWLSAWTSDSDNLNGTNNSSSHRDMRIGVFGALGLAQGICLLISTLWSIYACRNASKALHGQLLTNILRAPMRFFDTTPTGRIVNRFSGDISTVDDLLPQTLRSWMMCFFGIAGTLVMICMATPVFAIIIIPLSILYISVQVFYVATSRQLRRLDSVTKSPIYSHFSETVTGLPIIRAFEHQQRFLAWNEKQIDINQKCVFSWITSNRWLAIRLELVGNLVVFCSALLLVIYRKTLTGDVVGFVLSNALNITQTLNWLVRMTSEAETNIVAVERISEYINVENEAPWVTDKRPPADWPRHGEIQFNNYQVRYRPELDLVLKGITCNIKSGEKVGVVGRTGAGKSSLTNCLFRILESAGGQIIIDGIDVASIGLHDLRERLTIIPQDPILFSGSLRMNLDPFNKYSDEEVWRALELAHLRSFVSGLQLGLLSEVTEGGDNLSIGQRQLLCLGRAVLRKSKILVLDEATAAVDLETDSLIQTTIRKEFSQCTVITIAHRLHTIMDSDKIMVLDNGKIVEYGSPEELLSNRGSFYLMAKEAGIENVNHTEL

Regarding `CCCCCC1OC(O)CC1SC[C@H](NC(=O)CC[C@H](N)C(=O)O)C(=O)NCC(=O)O` (stereo partly specified), the Activity entry is “substrate []”.

The values are drawn from ChEMBL document CHEMBL2074224, “Characterization of multidrug resistance-associated protein 2 in the hepatocellular disposition of 4-hydroxynonenal” (Arch Biochem Biophys, 2003).
